Measurements reported in patent US20130064812A1, “COMBINATION THERAPIES FOR HEMATOLOGIC MALIGNANCIES” (Gilead Calistoga LLC, priority 2011, published 2013).
“Also recorded” adds a separate entry of the source. Like-named read-outs stand apart in the source and are kept apart here.

Assays:
[1] = tested on: patient chronic lymphocytic leukemia (CLL) cells; assay: Apoptosis of patient CLL cells (Annexin V-FITC/PI); format: cell-based, human
Procedure: Peripheral blood was obtained from patients with B-CLL through the CLL Research Consortium from Ohio State University. Primary CD19-positive cells were isolated using Rosette-Sep (StemCell Technologies). Cells were maintained in RPMI 1640 (Invitrogen) supplemented with 10% heat-inactivated fetal bovine serum, 2 mmol/L L-glutamine, and penicillin (100 units/mL)/streptomycin (100 μg/mL; Invitrogen) at 37° C., 5% CO2, and high humidity. […] After incubation for 10 minutes at room temperature in a light-protected area, the specimens were quantified by flow cytometry on a FACScan™ (Becton Dickinson).

CLL = assay: ALC and lymphadenopathy in a patient with CLL; format: in vivo, human; details: 1 cycle (28 days) oral
Procedure: This example provides data relating to the concentration of absolute lymphocyte count (ALC) in the blood of a patient with CLL after 1 cycle (28 days) of treatment with oral administration of the compound of formula I. The blood ALC concentration was measured over a period of 4 weeks after completion of one cycle of treatment. A 55% decrease in lymphocytosis and a 38% decrease in lymphadenopathy as a result of treatment were observed. A marked decrease in ALC concentration is observed between week 1 and week 2, FIG. 13.

PIP5Kα = PIP5Kα (Homo sapiens, UniProt Q99755); assay: InvitroGen Adapta kinase assay, PIP5Kα; format: biochemical; details: Other Phosphoinositide kinases; head prints no unit
[2] = tested on: CLL cells with StromaNKTert; assay: Viability / apoptosis of stroma-exposed CLL cells (Annexin V/PI); format: cell-based, human
Procedure: CLL cells were cultured under standardized conditions on stromal cell lines or primary NLC. Briefly, stromal cells were seeded one day prior to each experiment onto 24-well plates (Corning Life Sciences) at a concentration of 3×10^5 cells/mL/well and incubated at 37° C. in 5% CO2. Stromal cell confluence was confirmed by phase contrast microscopy, and CLL cells were then added onto the stromal cell layer at a concentration of 3×10^6 cells/mL. Cultures were then treated with compounds for the specified time periods. CLL cells were removed for analysis by gentle pipetting with media, and were then washed in PBS prior to analysis. A 24-hour co-culture time point was used unless otherwise indicated.
CLL cell viability was determined by analysis of Annexin V-FITC (BD Biosciences, San Diego, Calif.) and Propidium Iodine (PI) (Sigma) by FACS.
To determine whether PI3K inhibition increased the sensitivity of stroma-exposed CLL cells by increasing priming, PB-derived CLL cells cultured with or without StromaNKTert cells for 24 hours and were examined using Annexin-PI and BH3 profiling. […] Stromal co-culture of four CLL patient samples led to protection from apoptosis in untreated cells.

[3] = tested on: CD19+ cells from CLL patients; assay: Surface CD40, CD86, CD20 on CD19+ CLL cells (flow cytometry); format: cell-based, human; details: 0.5 μM lenalidomide and/or 10 μM compound, 48 hours
Procedure: Antibodies to CD20, CD40, CD80, CD86 or IgG1 (BD Biosciences, San Jose Calif.) were surface stained.
To extend these findings, inhibition of PI3K-δ prevented lenalidomide was investigated to see whether it induced up-regulation of other co-stimulatory molecules important to B-cell antigen presentation. […] Surface expression of CD40 or CD86 was evaluated by flow cytometry using a CD40- or CD86-PE antibodies and IgG1-PE isotype control.
Internalization of CD20 was evaluated by quantifying surface expression of CD20 by flow cytometry using a CD20-PE antibodies and IgG1-PE isotype control.

AKT and ERK pathways = assay: AKT and ERK pathway phosphorylation in MM cells (immunoblot); format: cell-based, human
Text: Whole-cell lysates were subjected to sodium dodecyl sulfate-polyacrylamide gel electrophoresis (SDS-PAGE) separation, transferred to Pure Nitrocellulose membranes (Bio-Rad Laboratories, Hercules, Calif.), and immunoblotted with anti-AKT, phospho(p)-AKT (Ser473, Thr 308), ERK1/2, P-ERK1/2, P-PDK1, STAT, P-STAT, P-FKRHL, P-70S6K, LC3, and PI3K/p110α Abs (Cell Signaling Danvers, Mass.); anti-p110β, PI3K/p110δ, Glyceraldehyde 3-phosphate dehydrogenase (GAPDH), α-tubulin, and actin Abs (Santa Cruz Biotechnology, CA); and anti-p110γ Ab (Alexis, San Diego, Calif.): and anti-LC3 Ab (Abgent, San Diego, Calif.).
Actin Ab was used as a loading control. […] Whole cell lysates were subjected to immunoblotting using AKT, P-AKT (Ser473 and Thr308), ERK1/2, P-ERK1/2, P-PDK1, and P-FKRHL antibodies. α-tubulin is used as a loading control.

LB cells = assay: MM cell growth with IGF-1 or IL-6 (MTT); format: cell-based, human; details: 0.625 μM-[…], 48 h, with IL-6 or IGF-1
Procedure: LB cells ([…]) were cultured for 48 h with control media; with the compound of formula I, in the presence or absence of either IL-6 or IGF-1. […] Chemicon International) dye absorbance. Cells were pulsed with 10 μL of 5 mg/mL MTT to each well for the last 4 hours of 48-hour cultures, followed by 100 μL isopropanol containing 0.04 N HCl.

[4] = tested on: CLL cells co-cultured with MSCs; assay: CLL cells co-cultured with marrow stromal cells (MSC), DiOC6/PI viability; details: compound 5 μM; bendamustine, fludarabine, dexamethasone 10 μM
Text: The viable cell population was characterized by bright DiOC6 staining and PI exclusion, and was gated in the lower right corner of each contour plot.
Viabilities of drug-treated samples were normalized to the viabilities of control samples at the respective timepoints (100%).

[5] = tested on: HS-578T, T47D, and MCF7 cells; assay: Apoptosis in breast cancer cell lines (Annexin V-FITC/7AAD); format: cell-based; details: 24 h
Procedure: HS-578T, T47D, and MCF7 cells were treated with the compound of formula I or corresponding DMSO concentrations for 24 h. The percentage of apoptotic cells was determined by Annexin V-FITC/7AAD staining. Bottom left, viable cells ([…]); bottom right, early apoptotic cells (Annexin V-FITC positive only); top right, mid-late apoptotic cells (Annexin V-FITC/7AAD double-positive); and top left, late apoptotic/necrotic (7AAD positive only). Percentages of cells in each quadrant are indicated except for the bottom left quadrant (viable cells).

[6] = listed as compound of formula I

Chain of PIP5Kα (Q99755 whole entry): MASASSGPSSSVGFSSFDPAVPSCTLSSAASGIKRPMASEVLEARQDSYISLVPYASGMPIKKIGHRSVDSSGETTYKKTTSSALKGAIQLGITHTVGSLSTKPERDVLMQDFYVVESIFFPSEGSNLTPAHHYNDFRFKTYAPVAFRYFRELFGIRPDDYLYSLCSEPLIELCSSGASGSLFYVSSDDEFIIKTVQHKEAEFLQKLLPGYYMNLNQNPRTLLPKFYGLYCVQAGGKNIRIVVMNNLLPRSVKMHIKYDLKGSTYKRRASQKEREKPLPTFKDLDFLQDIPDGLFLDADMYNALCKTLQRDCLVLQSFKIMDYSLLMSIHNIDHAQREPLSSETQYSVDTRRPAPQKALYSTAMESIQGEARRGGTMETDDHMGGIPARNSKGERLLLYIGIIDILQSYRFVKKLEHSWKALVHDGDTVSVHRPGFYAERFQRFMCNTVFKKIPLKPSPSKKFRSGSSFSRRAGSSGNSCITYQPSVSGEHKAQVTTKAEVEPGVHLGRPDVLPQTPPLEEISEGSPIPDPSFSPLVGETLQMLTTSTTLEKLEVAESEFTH

## CC[C@H](Nc1ncnc2[nH]cnc12)c1nc2cccc(F)c2c(=O)n1-c1ccccc1 [Compound I, 5-fluoro-3-phenyl-2-[1-(9H-purin-6-ylamino)-propyl]-3H-quinazolin-4-one]
[1]
  apoptosis of CLL cells from poor prognosis patients: induced apoptosis was seen
  apoptosis of CLL cells from refractory/relapsed patients: induced apoptosis was also seen to be effective
[1]; 96 hours
  apoptosis of CLL patient cells: dose-dependent cytotoxicity; also recorded: results in apoptosis and the result appears to be dose-dependent
[1]; listed as compound I
  apoptosis of CLL cells from poor prognosis patients: increased apoptosis
[1]; [6]
  apoptosis of CLL cells from refractory/relapsed patients: increased apoptosis
CLL
  decrease in lymphadenopathy: 38%
  decrease in lymphocytosis: 55%
PIP5Kα
  IC50: > 1000 nM
[2]; 10 μM, untreated less than 10%
  apoptosis in stroma-exposed CLL cells: More than 40%
[2]; four patient samples, 24 hours
  apoptosis versus control in the absence of stroma: induce more apoptosis than the control
  apoptosis versus control in the presence of stroma: induce significantly more apoptosis than the control
[2]; two patients, 24 hours, ABT-737 100 nM, compound I 10 μM
  stroma-mediated resistance (CLL cell viability): profound stroma-mediated resistance
[2]; two resistant CLL patient samples
  sensitivity of CLL cells to ABT-737 in the presence of stroma: restored sensitivity of CLL cells to ABT-737 in the presence of stroma
[3]; N=5, p=0.0057
  internalization of CD20: prevented this effect
[3]; N=25, p=0.0102 and <0.0001
  surface expression of CD40 and CD86: prevent the up-regulation of CD40 and CD86 induced by lenalidomide
AKT and ERK pathways; INA-6 and LB, 0-6 hours
  phosphorylation of PDK-1 and FKHRL: significantly inhibited phosphorylation of upstream PDK-1 and downstream FKHRL
AKT and ERK pathways; low expression of P110δ, 0-5.0 μM, 6 hours
  phosphorylation of AKT or ERK, MM.1S cells: did not affect phosphorylation of AKT or ERK
AKT and ERK pathways; p110δ positive, 12 h
  phosphorylation of AKT and ERK1/2, INA-6 cells: significantly blocked phosphorylation of AKT and ERK1/2
LB cells
  MM cell growth: inhibits MM cell growth even in the presence of cell growth stimulatory cytokines
[4]
  CLL cell death / survival in co-culture with MSC: sensitized CLL cells to the cytotoxic agents
[5]
  apoptosis in breast cancer cell lines: cytotoxicity to three different breast cancer cell lines
[5]; [6]
  apoptosis in breast cancer cell lines: induces apoptosis in breast cancer cell lines
